Values quoted from earlier work as cited in patent publication US20250161331A1, “ANTI-INFLAMMATORY DRUG-CANNABINOID-COMPRISING NANOEMULSIONS AND METHODS OF USING THE SAME” (SGN Nanopharma Inc., priority 2022, published 2025).
Where two headings read alike, the source gives them in different places.

## C=C(C)[C@@H]1CCC(C)=C[C@H]1c1c(O)cc(CCCCC)cc1O [CBD, Cannabidiol]
Cannabis oil formulations, same timeframe (3-7 days)
  CBD concentrations decreased: up to 38%
Solution as a tea, room temperature, 3-7 days
  CBD concentrations decreased: ≤ 50%
